Values belong to the compound of their own block, whether it stands above or below them.
What was measured:
[1] = molecular target: Cbl-b (36-427 aa truncated form, N-terminus Avi-tag) (Homo sapiens (Human), UniProt Q13191); assay: Cbl-b binding: TR-FRET displacement of BODIPY-FL probe
Method in brief: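 Avi-tagged Cbl-b 36-427 preincubated 1 h at RT with streptavidin-terbium in HEPES pH 7.5/NaCl/Triton/BSA/TCEP buffer, then 1 uM BODIPY-FL inhibitor probe plus compound added for 1 h. Probe displacement read by TR-FRET; IC50 fitted.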

Human primary T cells [2] = assay: T cell activation: CD69 surface expression by flow cytometry; type: cell-based; conditions: fold over anti-CD3 stimulated background normalized to Compound 141A; for CD69 10 nM: 10 nM compound; for CD69 100 nM: 100 nM compound; for CD69 1 nM: 1 nM compound
Method in brief: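 Negatively selected human primary T cells (1×10^5/well, XVivo-15) were captured on plates coated with 10 μg/mL anti-CD3 (OKT3). They were exposed to serially diluted compounds in duplicate for 48 h at 37° C. CD69 was read by flow cytometry as fold over anti-CD3-only background, normalized to Compound 141A and binned into ranges.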

Human primary T cells [3] = assay: T cell activation: secreted IL-2; type: cell-based; conditions: 48 hours, fold over background normalized to Compound 141A; for IL-2 1 nM: 1 nM compound; for IL-2 10 nM: 10 nM compound; for IL-2 100 nM: 100 nM compound
Method in brief: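 Negatively selected human primary T cells on plate-bound anti-CD3 (OKT3) in serum-free medium, treated 48 h at 37° C. with serial compound dilutions in duplicate. Secreted IL-2 by bead-based cytometric assay, expressed as fold over anti-CD3/CD28 background normalized to a reference compound, then binned into ranges.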

Human primary T cells [4] = assay: T cell activation: secreted IFN-y; type: cell-based; conditions: 48 hours, fold over background normalized to Compound 141A; for IFN-y 1 nM: 1 nM compound; for IFN-y 10 nM: 10 nM compound; for IFN-y 100 nM: 100 nM compound
Method in brief: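 Negatively selected primary human T cells (1×10^5/well, serum-free XVivo-15) on plates coated with 10 μg/mL anti-CD3 were exposed to serial compound dilutions for 48 h at 37 °C. Secreted IFN-γ was measured by cytometric bead array and expressed as fold over anti-CD3/CD28 background, normalized to a reference compound and binned into ranges A–D.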

Chain of Cbl-b (36-427 aa truncated form, N-terminus Avi-tag) (Q13191 36-427): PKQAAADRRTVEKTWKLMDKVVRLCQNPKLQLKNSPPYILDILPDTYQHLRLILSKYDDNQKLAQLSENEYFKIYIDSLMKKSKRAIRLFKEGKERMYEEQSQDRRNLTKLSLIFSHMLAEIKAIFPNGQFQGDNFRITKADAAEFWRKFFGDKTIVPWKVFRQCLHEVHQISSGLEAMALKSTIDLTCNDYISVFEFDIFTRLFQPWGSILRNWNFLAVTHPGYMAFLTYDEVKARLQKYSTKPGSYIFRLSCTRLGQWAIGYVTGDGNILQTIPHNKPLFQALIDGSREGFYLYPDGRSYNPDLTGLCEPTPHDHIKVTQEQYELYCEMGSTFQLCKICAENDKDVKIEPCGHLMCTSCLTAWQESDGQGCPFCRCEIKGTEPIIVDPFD

IC50 [1]: 5.01 to 20 nM
SMILES: CCNc1cc(C2(Cc3nncn3C)COC2)cc(N2Cc3c(cc([C@@H](CSC)N4CCC[C@H](C)C4)cc3C(F)(F)F)C2=O)n1 [Compound 141B, 2-[6-(ethylamino)-4-{3-[(4-methyl-1,2,4-triazol-3-yl)methyl]oxetan-3-yl}pyridin-2-yl]-6-[(1s)-1-[(3S)-3-methylpiperidin-1-yl]-2-(methylsulfanyl)ethyl]-4-(trifluoromethyl)-3H-isoindol-1-one]
CD69 10 nM (Human primary T cells [2]): A (values between 0.81 and 1.10: range “A”)
CD69 100 nM (Human primary T cells [2]): A (values between 0.81 and 1.10: range “A”)
IL-2 1 nM (Human primary T cells [3]): B (values between 0.31 and 0.79: range “B”)
IL-2 10 nM (Human primary T cells [3]): B (values between 0.31 and 0.79: range “B”)
IL-2 100 nM (Human primary T cells [3]): B (values between 0.31 and 0.79: range “B”)
IFN-y 1 nM (Human primary T cells [4]): C (values between 0.10 and 0.30: range “C”)
IFN-y 10 nM (Human primary T cells [4]): B (values between 0.31 and 1.00: range “B;”)
IFN-y 100 nM (Human primary T cells [4]): B (values between 0.31 and 1.00: range “B;”)

IC50 [1]: 1 to 5 nM
SMILES: CSc1cc(CN2CCC[C@H](C)C2)cc2c1CN(c1cccc([C@]3(c4nncn4C)C[C@H](C)C3)c1)C2=O [Compound 150, 6-{[(3S)-3-methylpiperidin-1-yl]methyl}-4-(methylsulfanyl)-2-{3-[(1r,3s)-3-methyl-1-(4-methyl-1,2,4-triazol-3-yl)cyclobutyl]phenyl}-3H-isoindol-1-one]
CD69 1 nM (Human primary T cells [2]): C (values between 0.30 and 0.60: range “C”)
CD69 10 nM (Human primary T cells [2]): C (values between 0.30 and 0.60: range “C”)
CD69 100 nM (Human primary T cells [2]): A (values between 0.81 and 1.10: range “A”)
IL-2 1 nM (Human primary T cells [3]): D (values between 0.01 and 0.09: range “D.”)
IL-2 10 nM (Human primary T cells [3]): C (values between 0.10 and 0.30: range “C”)
IL-2 100 nM (Human primary T cells [3]): B (values between 0.31 and 0.79: range “B”)
IFN-y 1 nM (Human primary T cells [4]): B (values between 0.31 and 1.00: range “B;”)
IFN-y 10 nM (Human primary T cells [4]): B (values between 0.31 and 1.00: range “B;”)
IFN-y 100 nM (Human primary T cells [4]): A (fold over background between 1.10 and 2.00: range “A”)

IC50 [1]: 1 to 5 nM
SMILES: CC1CC(c2cccc(N3Cc4c(cc(C(CO)N5CCC[C@H](C)C5)cc4C(F)(F)F)C3=O)c2)(c2nncn2C)C1 (stereo partly drawn) [Compound 152, 6-{2-hydroxy-1-[(3S)-3-methylpiperidin-1-yl]ethyl}-2-{3-[(1r,3s)-3-methyl-1-(4-methyl-1,2,4-triazol-3-yl)cyclobutyl]phenyl}-4-(trifluoromethyl)-3H-isoindol-1-one]
CD69 1 nM (Human primary T cells [2]): C (values between 0.30 and 0.60: range “C”)
CD69 10 nM (Human primary T cells [2]): C (values between 0.30 and 0.60: range “C”)
CD69 100 nM (Human primary T cells [2]): A (values between 0.81 and 1.10: range “A”)
IL-2 1 nM (Human primary T cells [3]): C (values between 0.10 and 0.30: range “C”)
IL-2 10 nM (Human primary T cells [3]): C (values between 0.10 and 0.30: range “C”)
IL-2 100 nM (Human primary T cells [3]): C (values between 0.10 and 0.30: range “C”)
IFN-y 1 nM (Human primary T cells [4]): C (values between 0.10 and 0.30: range “C”)
IFN-y 10 nM (Human primary T cells [4]): B (values between 0.31 and 1.00: range “B;”)
IFN-y 100 nM (Human primary T cells [4]): B (values between 0.31 and 1.00: range “B;”)

SMILES: CSc1cc(CN2CCC[C@H](C)C2)cc2c1CN(c1cc(C3(Cc4nncn4C)COC3)cc(NCCC#N)n1)C2=O.O=C(O)C(F)(F)F [Compound 154, 3-[(4-{3-[(4-methyl-1,2,4-triazol-3-yl)methyl]oxetan-3-yl}-6-(6-{[(3S)-3-methylpiperidin-1-yl]methyl}-4-(methylsulfanyl)-1-oxo-3H-isoindol-2-yl)pyridin-2-yl)amino]propanenitrile; trifluoroacetic acid]
IC50 [1]: 1 to 5 nM
CD69 1 nM (Human primary T cells [2]): C (values between 0.30 and 0.60: range “C”)
CD69 10 nM (Human primary T cells [2]): C (values between 0.30 and 0.60: range “C”)
CD69 100 nM (Human primary T cells [2]): B (values between 0.61 and 0.80: range “B;”)
IL-2 1 nM (Human primary T cells [3]): D (values between 0.01 and 0.09: range “D.”)
IL-2 10 nM (Human primary T cells [3]): D (values between 0.01 and 0.09: range “D.”)
IL-2 100 nM (Human primary T cells [3]): C (values between 0.10 and 0.30: range “C”)
IFN-y 1 nM (Human primary T cells [4]): B (values between 0.31 and 1.00: range “B;”)
IFN-y 10 nM (Human primary T cells [4]): B (values between 0.31 and 1.00: range “B;”)
IFN-y 100 nM (Human primary T cells [4]): B (values between 0.31 and 1.00: range “B;”)

IC50 [1]: 5.01 to 20 nM
SMILES: Cn1cnnc1CC1(c2cc(NCCC#N)nc(N3Cc4c(cc(CN5CCCC6OCCC65)cc4C(F)(F)F)C3=O)c2)COC1 (stereo not drawn) [Compound 162, 3-{[6-(6-{hexahydro-2H-furo[3,2-b]pyridin-4-ylmethyl}-1-oxo-4-(trifluoromethyl)-3H-isoindol-2-yl)-4-{3-[(4-methyl-1,2,4-triazol-3-yl)methyl]oxetan-3-yl}pyridin-2-yl]amino}propanenitrile]
CD69 1 nM (Human primary T cells [2]): C (values between 0.30 and 0.60: range “C”)
CD69 10 nM (Human primary T cells [2]): C (values between 0.30 and 0.60: range “C”)
CD69 100 nM (Human primary T cells [2]): C (values between 0.30 and 0.60: range “C”)
IL-2 1 nM (Human primary T cells [3]): D (values between 0.01 and 0.09: range “D.”)
IL-2 10 nM (Human primary T cells [3]): D (values between 0.01 and 0.09: range “D.”)
IL-2 100 nM (Human primary T cells [3]): D (values between 0.01 and 0.09: range “D.”)
IFN-y 1 nM (Human primary T cells [4]): C (values between 0.10 and 0.30: range “C”)
IFN-y 10 nM (Human primary T cells [4]): B (values between 0.31 and 1.00: range “B;”)
IFN-y 100 nM (Human primary T cells [4]): B (values between 0.31 and 1.00: range “B;”)

SMILES: Cn1cnnc1CC1(c2cc(NCCC#N)nc(N3Cc4c(cc(CN5CC6(F)CC(CO)(C5)C6)cc4C(F)(F)F)C3=O)c2)COC1.O=C(O)C(F)(F)F [Compound 164, 3-{[6-(6-{[1-fluoro-5-(hydroxymethyl)-3-azabicyclo[3.1.1]heptan-3-yl]methyl}-1-oxo-4-(trifluoromethyl)-3H-isoindol-2-yl)-4-{3-[(4-methyl-1,2,4-triazol-3-yl)methyl]oxetan-3-yl}pyridin-2-yl]amino}propanenitrile; trifluoroacetic acid]
IC50 [1]: 5.01 to 20 nM
CD69 1 nM (Human primary T cells [2]): C (values between 0.30 and 0.60: range “C”)
CD69 10 nM (Human primary T cells [2]): C (values between 0.30 and 0.60: range “C”)
CD69 100 nM (Human primary T cells [2]): C (values between 0.30 and 0.60: range “C”)
IL-2 1 nM (Human primary T cells [3]): C (values between 0.10 and 0.30: range “C”)
IL-2 10 nM (Human primary T cells [3]): C (values between 0.10 and 0.30: range “C”)
IL-2 100 nM (Human primary T cells [3]): C (values between 0.10 and 0.30: range “C”)
IFN-y 1 nM (Human primary T cells [4]): C (values between 0.10 and 0.30: range “C”)
IFN-y 10 nM (Human primary T cells [4]): C (values between 0.10 and 0.30: range “C”)
IFN-y 100 nM (Human primary T cells [4]): B (values between 0.31 and 1.00: range “B;”)

IC50 [1]: 5.01 to 20 nM
SMILES: CCSc1cc(C2(Cc3nncn3C)COC2)cc(N2Cc3c(C=O)cc(CN4CCC[C@H](C)C4)cc3C2=O)n1 [Compound 169, 2-[6-(ethylsulfanyl)-4-{3-[(4-methyl-1,2,4-triazol-3-yl)methyl]oxetan-3-yl}pyridin-2-yl]-6-{[(3S)-3-methylpiperidin-1-yl]methyl}-1-oxo-3H-isoindole-4-carbaldehyde]
CD69 1 nM (Human primary T cells [2]): C (values between 0.30 and 0.60: range “C”)
CD69 10 nM (Human primary T cells [2]): C (values between 0.30 and 0.60: range “C”)
CD69 100 nM (Human primary T cells [2]): C (values between 0.30 and 0.60: range “C”)
IL-2 1 nM (Human primary T cells [3]): C (values between 0.10 and 0.30: range “C”)
IL-2 10 nM (Human primary T cells [3]): C (values between 0.10 and 0.30: range “C”)
IL-2 100 nM (Human primary T cells [3]): C (values between 0.10 and 0.30: range “C”)
IFN-y 1 nM (Human primary T cells [4]): C (values between 0.10 and 0.30: range “C”)
IFN-y 10 nM (Human primary T cells [4]): B (values between 0.31 and 1.00: range “B;”)
IFN-y 100 nM (Human primary T cells [4]): B (values between 0.31 and 1.00: range “B;”)

— patent US20250304563A1, “ACTIVATORS OF EFFECTOR T CELLS” (Orum Therapeutics, Inc., priority 2022, published 2025)
